Reference: PubChem BioAssay (NCI)
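Compound exposure: 48 hours, 5 concentrations, 96-well plates. GI50 = concentration required for 50% inhibition of growth. TGI marks complete inhibition of growth.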

Key:
Assay in all cases: NCI-60 cell line screen, 48 h
HCT-15 colon = tested on: HCT-15 colon
DMS 273 small cell lung = tested on: DMS 273 small cell lung
DMS 114 small cell lung = tested on: DMS 114 small cell lung
K-562 leukemia = tested on: K-562 leukemia
DLD-1 colon = tested on: DLD-1 colon
SNB-78 CNS = tested on: SNB-78 CNS
UACC-257 melanoma = tested on: UACC-257 melanoma
KM20L2 colon = tested on: KM20L2 colon
SF-268 CNS = tested on: SF-268 CNS
M19-MEL melanoma = tested on: M19-MEL melanoma
U251 CNS = tested on: U251 CNS
LXFL 529 NSCLC = tested on: LXFL 529 NSCLC
RXF-631 renal = tested on: RXF-631 renal
HOP-18 NSCLC = tested on: HOP-18 NSCLC
SR leukemia = tested on: SR leukemia
MCF7 breast = tested on: MCF7 breast

**Q.** `CNC(=O)NCCCC(NC(C)=O)C(=O)NCc1ccccc1` (stereo unspecified) was tested. Which TGI (HCT-15 colon) did it give?
**A.** Its TGI is > 100 µM.

**Q.** And the TGI (DMS 273 small cell lung)?
**A.** The TGI was > 100 µM.

**Q.** What about the TGI (DMS 114 small cell lung) of the same compound?
**A.** The TGI was > 100 µM.

**Q.** And the TGI (K-562 leukemia)?
**A.** The TGI was > 100 µM.

**Q.** What about the TGI (DLD-1 colon) of the same compound?
**A.** Its TGI is > 100 µM.

**Q.** What about the TGI (SNB-78 CNS) of the same compound?
**A.** The TGI was > 100 µM.

**Q.** And the TGI (UACC-257 melanoma)?
**A.** Its TGI is > 100 µM.

**Q.** What about the TGI (KM20L2 colon) of the same compound?
**A.** The TGI was > 100 µM.

**Q.** What about the TGI (SF-268 CNS) of the same compound?
**A.** The TGI was > 100 µM.

**Q.** What about the TGI (M19-MEL melanoma) of the same compound?
**A.** The TGI was > 100 µM.

**Q.** And the TGI (U251 CNS)?
**A.** The TGI was > 100 µM.

**Q.** What about the TGI (LXFL 529 NSCLC) of the same compound?
**A.** Its TGI is > 100 µM.

**Q.** And the TGI (RXF-631 renal)?
**A.** Its TGI is > 100 µM.

**Q.** `COc1cc(C2C(Cl)C(=O)N2n2cnc3ccccc3c2=O)ccc1O` (stereo unspecified) was tested. Which TGI (HCT-15 colon) did it give?
**A.** Its TGI is > 100 µM.

**Q.** What about the TGI (DMS 273 small cell lung) of the same compound?
**A.** Its TGI is > 100 µM.

**Q.** What about the TGI (DMS 114 small cell lung) of the same compound?
**A.** Its TGI is > 100 µM.

**Q.** What about the TGI (DLD-1 colon) of the same compound?
**A.** Its TGI is > 100 µM.

**Q.** And the TGI (SNB-78 CNS)?
**A.** The TGI was > 100 µM.

**Q.** What about the TGI (UACC-257 melanoma) of the same compound?
**A.** The TGI was 99.6 µM.

**Q.** What about the TGI (KM20L2 colon) of the same compound?
**A.** Its TGI is > 100 µM.

**Q.** And the TGI (SF-268 CNS)?
**A.** Its TGI is > 100 µM.

**Q.** And the TGI (HOP-18 NSCLC)?
**A.** The TGI was > 100 µM.

**Q.** What about the TGI (M19-MEL melanoma) of the same compound?
**A.** The TGI was > 100 µM.

**Q.** What about the TGI (SR leukemia) of the same compound?
**A.** The TGI was > 100 µM.

**Q.** What about the TGI (U251 CNS) of the same compound?
**A.** The TGI was > 100 µM.

**Q.** And the TGI (LXFL 529 NSCLC)?
**A.** The TGI was > 100 µM.

**Q.** For `O=c1[nH]c2cc(Cl)ccc2nc1/C(=N\Nc1ccccc1)C(O)c1ccc(Cl)c(Cl)c1` (stereo unspecified), which TGI (HCT-15 colon) is on record?
**A.** Its TGI is > 100 µM.

**Q.** What about the TGI (DMS 273 small cell lung) of the same compound?
**A.** The TGI was > 100 µM.

**Q.** What about the TGI (DMS 114 small cell lung) of the same compound?
**A.** Its TGI is > 100 µM.

**Q.** And the TGI (K-562 leukemia)?
**A.** The TGI was > 100 µM.

**Q.** What about the TGI (DLD-1 colon) of the same compound?
**A.** Its TGI is > 100 µM.

**Q.** What about the TGI (SNB-78 CNS) of the same compound?
**A.** The TGI was > 100 µM.

**Q.** And the TGI (UACC-257 melanoma)?
**A.** The TGI was > 100 µM.

**Q.** And the TGI (KM20L2 colon)?
**A.** Its TGI is > 100 µM.

**Q.** And the TGI (SF-268 CNS)?
**A.** Its TGI is > 100 µM.

**Q.** And the TGI (M19-MEL melanoma)?
**A.** The TGI was > 100 µM.

**Q.** What about the TGI (SR leukemia) of the same compound?
**A.** The TGI was > 100 µM.

**Q.** What about the TGI (U251 CNS) of the same compound?
**A.** The TGI was > 100 µM.

**Q.** And the TGI (LXFL 529 NSCLC)?
**A.** The TGI was > 100 µM.

**Q.** And the TGI (RXF-631 renal)?
**A.** The TGI was > 100 µM.

**Q.** Which results are given for `COc1cc(-c2cccs2)sc1-c1cccs1`?
**A.** TGI (HCT-15 colon): > 100 µM; TGI (DMS 273 small cell lung): > 100 µM; TGI (DMS 114 small cell lung): 94.3 µM; TGI (K-562 leukemia): 51.5 µM; TGI (DLD-1 colon): > 100 µM; TGI (SNB-78 CNS): > 100 µM; TGI (UACC-257 melanoma): > 100 µM; TGI (KM20L2 colon): 85.1 µM; TGI (SF-268 CNS): > 100 µM; TGI (HOP-18 NSCLC): 17.2 µM; TGI (M19-MEL melanoma): > 100 µM; TGI (SR leukemia): 61.8 µM; TGI (U251 CNS): > 100 µM; TGI (LXFL 529 NSCLC): > 100 µM

**Q.** `O=c1cc(-c2ccc3c(c2)OCO3)[nH]c2cc3c(cc12)OCO3` was tested. Which TGI (HCT-15 colon) did it give?
**A.** The TGI was > 100 µM.

**Q.** And the TGI (DMS 273 small cell lung)?
**A.** Its TGI is > 100 µM.

**Q.** And the GI50 (DMS 114 small cell lung)?
**A.** Its GI50 is 24 µM.

**Q.** What about the TGI (DMS 114 small cell lung) of the same compound?
**A.** The TGI was 96.1 µM.

**Q.** What about the TGI (K-562 leukemia) of the same compound?
**A.** The TGI was > 100 µM.

**Q.** And the TGI (DLD-1 colon)?
**A.** Its TGI is > 100 µM.

**Q.** And the TGI (SNB-78 CNS)?
**A.** The TGI was > 100 µM.

**Q.** What about the GI50 (KM20L2 colon) of the same compound?
**A.** The GI50 was 26.6 µM.

**Q.** And the TGI (KM20L2 colon)?
**A.** The TGI was 74.5 µM.

**Q.** And the GI50 (SF-268 CNS)?
**A.** Its GI50 is 46.8 µM.

**Q.** And the TGI (SF-268 CNS)?
**A.** Its TGI is > 100 µM.

**Q.** And the TGI (HOP-18 NSCLC)?
**A.** Its TGI is > 100 µM.

**Q.** What about the TGI (M19-MEL melanoma) of the same compound?
**A.** Its TGI is 78.2 µM.

**Q.** What about the TGI (SR leukemia) of the same compound?
**A.** Its TGI is 52.1 µM.

**Q.** What about the TGI (U251 CNS) of the same compound?
**A.** Its TGI is 99 µM.

**Q.** And the TGI (LXFL 529 NSCLC)?
**A.** The TGI was > 100 µM.

**Q.** What does the source list for `O=C1C(Br)=C(Br)C(=O)c2ccc(=O)ccc21`?
**A.** TGI (HCT-15 colon): 38.7 µM; TGI (DMS 273 small cell lung): > 100 µM; TGI (DMS 114 small cell lung): 39.2 µM; TGI (K-562 leukemia): > 61.9 µM; TGI (DLD-1 colon): 46.6 µM; TGI (SNB-78 CNS): > 100 µM; TGI (UACC-257 melanoma): 58.3 µM; TGI (KM20L2 colon): > 100 µM; TGI (SF-268 CNS): > 77 µM; TGI (HOP-18 NSCLC): 57 µM; TGI (M19-MEL melanoma): 32.5 µM; TGI (SR leukemia): 45 µM; TGI (MCF7 breast): 37.4 µM; TGI (U251 CNS): 61.4 µM; TGI (LXFL 529 NSCLC): 31.7 µM; TGI (RXF-631 renal): 39.7 µM
